Source: the supplement of paper PMC10331698
± gives the standard deviation of the averaged measurements.

What was measured:
Test in all cases: LOEC (log10 uM (lowest observed effect concentration))
[1] = compound: C=CC(=O)OCCC(F)(F)C(F)(F)C(F)(F)C(F)(F)F [2-(Perfluorobutyl)ethyl acrylate]
Method: (§1)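 BioMAP Diversity Plus panel in human primary cell co-cultures, 4 concentrations in duplicate blinded samples. Responses are log10 fold change versus DMSO control, processed with tcpl v2.1.0. A hit is called when responses at any concentration exceed the cutoff (the larger of 3*bmad or log10(1.2)); the lowest observed effect concentration (modl_ga, log10 uM) is reported for hits.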

[2] = compound: O=C(O)C(F)(F)C(F)(F)C(F)(F)C(F)(F)C(F)(F)C(F)(F)C(F)(F)C(F)(F)C(F)(F)C(F)(F)C(F)(F)C(F)(F)F [Perfluorotridecanoic acid]
Method: as §1

[3] = compound: O=C(O)C(F)(F)C(F)(F)C(F)(F)C(F)(F)C(F)(F)C(F)(F)C(F)(F)C(F)(F)Cl [9-Chloro-perfluorononanoic acid]
Method: as §1

[4] = compound: O=P(O)(O)CCC(F)(F)C(F)(F)C(F)(F)C(F)(F)C(F)(F)C(F)(F)C(F)(F)C(F)(F)F [((Perfluorooctyl)ethyl)phosphonic acid]
Method: as §1

Perfluorooctanamidine = compound: N=C(N)C(F)(F)C(F)(F)C(F)(F)C(F)(F)C(F)(F)C(F)(F)C(F)(F)F [Perfluorooctanamidine]
Method: as §1

[5] = compound: O=S(=O)(O)C(F)(F)C(F)(F)C(F)(F)C(F)(F)C(F)(F)C(F)(F)C(F)(F)C(F)(F)F [Perfluorooctanesulfonic acid]
Method: as §1

[6] = compound: CNS(=O)(=O)C(F)(F)C(F)(F)C(F)(F)C(F)(F)C(F)(F)C(F)(F)C(F)(F)C(F)(F)F [N-Methylperfluorooctanesulfonamide]
Method: as §1

Azathioprine = compound: Cn1cnc([N+](=O)[O-])c1Sc1ncnc2[nH]cnc12 [Azathioprine]
Method: as §1

[7] = compound: O=C(O)C(F)(F)OC(F)(F)C(F)(F)OC(F)(F)C(F)(F)C(F)(F)C(F)(F)F [Perfluoro-3,6-dioxadecanoic acid]
Method: as §1

[8] = compound: O=S(=O)(O)C(F)(F)C(F)(F)C(F)(F)C(F)(F)C(F)(F)C(F)(F)C(F)(F)C(F)(F)F [Potassium perfluorooctanesulfonate]
Method: as §1

Test System: hDFCGF MMP1 up
- LOEC (log10 uM) [1]: 1.54 ± 0.34

Test System: 3C Eselectin down
- LOEC (log10 uM) [1]: 1.78

Test System: SAg CD40 down
- LOEC (log10 uM) [1]: 1.78
- LOEC (log10 uM) [2]: 1.22 ± 0.37
- LOEC (log10 uM) [3]: 1.78
- LOEC (log10 uM) [4]: 1.78

Test System: 3C VCAM1 down
- LOEC (log10 uM) [1]: 1.54 ± 0.34
- LOEC (log10 uM) (Perfluorooctanamidine): 1.78
- LOEC (log10 uM) [3]: 1.78

Test System: MyoF ACTA1 down
- LOEC (log10 uM) [3]: 1.78

Test System: BF4T uPA down
- LOEC (log10 uM) [3]: 1.78

Test System: BE3C MIG down
- LOEC (log10 uM) [3]: 1.78
- LOEC (log10 uM) [5]: 1.78

Test System: BF4T IL8 down
- LOEC (log10 uM) [6]: 1.78

Test System: MyoF MMP1 up
- LOEC (log10 uM) [3]: 1.78

Test System: BT xIL2 down
- LOEC (log10 uM) [1]: 1.78
- LOEC (log10 uM) (Azathioprine): 1.48

Test System: BF4T VCAM1 down
- LOEC (log10 uM) (Azathioprine): 1.48
- LOEC (log10 uM) [3]: 1.3

Test System: MyoF CollagenI down
- LOEC (log10 uM) [2]: 1.48
- LOEC (log10 uM) [3]: 1.3
- LOEC (log10 uM) [7]: 1.78

Test System: hDFCGF VCAM1 down
- LOEC (log10 uM) [1]: 1.3
- LOEC (log10 uM) [6]: 0.573 ± 0.39
- LOEC (log10 uM) (Azathioprine): 1.48
- LOEC (log10 uM) (Perfluorooctanamidine): 1.54 ± 0.34
- LOEC (log10 uM) [2]: 0.977 ± 0.71
- LOEC (log10 uM) [3]: 1.78
- LOEC (log10 uM) [7]: 1.3
- LOEC (log10 uM) [5]: 1.78
- LOEC (log10 uM) [8]: 1.78

Test System: BE3C PAI1 down
- LOEC (log10 uM) [6]: 0.845
- LOEC (log10 uM) [3]: 1.3
- LOEC (log10 uM) [5]: 1.3
- LOEC (log10 uM) [8]: 1.3

Test System: BF4T IL8 up
- LOEC (log10 uM) [7]: 1.07 ± 0.32

Test System: 3C Eselectin up
- LOEC (log10 uM) [3]: 1.78

Test System: IMphg ESelectin up
- LOEC (log10 uM) [4]: 1.78
- LOEC (log10 uM) [5]: 1.78
- LOEC (log10 uM) [8]: 1.78

Test System: LPS SRB down
- LOEC (log10 uM) [3]: 1.78

Test System: BE3C ITAC down
- LOEC (log10 uM) [3]: 1.3
- LOEC (log10 uM) [5]: 1.54 ± 0.34
- LOEC (log10 uM) [8]: 1.3

Test System: LPS IL8 up
- LOEC (log10 uM) [3]: 1.54 ± 0.34

Test System: BE3C Keratin818 down
- LOEC (log10 uM) [3]: 1.78

Test System: BF4T MMP1 down
- LOEC (log10 uM) [3]: 1.78

Test System: hDFCGF MCP1 down
- LOEC (log10 uM) [3]: 1.78

Test System: BF4T Keratin818 down
- LOEC (log10 uM) [3]: 1.78

Test System: MyoF VCAM1 down
- LOEC (log10 uM) [3]: 1.54 ± 0.34

Test System: KF3CT MIG down
- LOEC (log10 uM) [3]: 1.78

Test System: BF4T MMP3 up
- LOEC (log10 uM) [7]: 1.3

Test System: 3C Thrombomodulin down
- LOEC (log10 uM) [1]: 1.54 ± 0.34

Test System: KF3CT SRB down
- LOEC (log10 uM) [3]: 1.78

Test System: hDFCGF SRB down
- LOEC (log10 uM) [3]: 1.78

Test System: hDFCGF PAI1 down
- LOEC (log10 uM) (Azathioprine): 1.48
- LOEC (log10 uM) (Perfluorooctanamidine): 1.78
- LOEC (log10 uM) [3]: 1.78
- LOEC (log10 uM) [4]: 1.78

Test System: LPS MCSF down
- LOEC (log10 uM) (Azathioprine): 1.48
- LOEC (log10 uM) [2]: 1.48
- LOEC (log10 uM) [4]: 1.78

Test System: BF4T Eotaxin3 down
- LOEC (log10 uM) [3]: 0.801 ± 0.71
- LOEC (log10 uM) [7]: 0.845
- LOEC (log10 uM) [4]: 1.54 ± 0.34

Test System: IMphg CD69 down
- LOEC (log10 uM) [3]: 1.78
- LOEC (log10 uM) [7]: 1.78

Test System: SAg CD69 down
- LOEC (log10 uM) [1]: 1.78
- LOEC (log10 uM) (Azathioprine): 1.48
- LOEC (log10 uM) [3]: 1.78

Test System: BT xTNFa down
- LOEC (log10 uM) [1]: 1.3
- LOEC (log10 uM) (Azathioprine): 0.716 ± 0.34

Test System: MyoF CollagenIV up
- LOEC (log10 uM) [6]: 0.845
- LOEC (log10 uM) [3]: 1.3
- LOEC (log10 uM) [7]: 1.78

Test System: BF4T MCP1 down
- LOEC (log10 uM) [3]: 0.801 ± 0.71
- LOEC (log10 uM) [7]: 0.573 ± 0.39

Test System: KF3CT IP10 down
- LOEC (log10 uM) [3]: 1.78
- LOEC (log10 uM) [7]: 1.78

Test System: IMphg ESelectin down
- LOEC (log10 uM) [6]: 0.845
- LOEC (log10 uM) (Azathioprine): 1.48

Test System: IMphg VCAM1 down
- LOEC (log10 uM) (Perfluorooctanamidine): 1.78
- LOEC (log10 uM) [2]: 1.22 ± 0.37
- LOEC (log10 uM) [3]: 1.78

Test System: LPS MCP1 down
- LOEC (log10 uM) [3]: 1.78

Test System: 3C HLADR down
- LOEC (log10 uM) [6]: 1.3
- LOEC (log10 uM) [3]: 1.78

Test System: 4H VEGFRII down
- LOEC (log10 uM) [2]: 1.48

Test System: 3C TissueFactor down
- LOEC (log10 uM) [1]: 1.54 ± 0.34

Test System: BE3C MMP9 down
- LOEC (log10 uM) [6]: 0.573 ± 0.39
- LOEC (log10 uM) [3]: 1.78
- LOEC (log10 uM) [5]: 1.3
- LOEC (log10 uM) [8]: 1.3

Test System: hDFCGF MIG down
- LOEC (log10 uM) [1]: 1.3
- LOEC (log10 uM) [2]: 0.716 ± 0.34
- LOEC (log10 uM) [3]: 1.3
- LOEC (log10 uM) [7]: 1.54 ± 0.34
- LOEC (log10 uM) [8]: 1.78

Test System: LPS MCSF up
- LOEC (log10 uM) [3]: 1.78

Test System: KF3CT PAI1 down
- LOEC (log10 uM) [3]: 1.3
- LOEC (log10 uM) [5]: 1.78
- LOEC (log10 uM) [8]: 1.78

Test System: SAg IL8 down
- LOEC (log10 uM) [1]: 1.78
- LOEC (log10 uM) (Azathioprine): 1.48
- LOEC (log10 uM) [3]: 1.78

Test System: BT PBMCCytotoxicity up
- LOEC (log10 uM) [3]: 1.78
- LOEC (log10 uM) [7]: 1.78

Test System: BT PBMCCytotoxicity down
- LOEC (log10 uM) [1]: 1.54 ± 0.34

Test System: MyoF TIMP1 down
- LOEC (log10 uM) [3]: 1.78

Test System: MyoF TIMP1 up
- LOEC (log10 uM) [7]: 1.3

Test System: 3C MCP1 down
- LOEC (log10 uM) [3]: 1.78

Test System: SAg Eselectin down
- LOEC (log10 uM) [1]: 1.78
- LOEC (log10 uM) (Azathioprine): 1.48

Test System: LPS Thrombomodulin up
- LOEC (log10 uM) [3]: 1.78

Test System: BE3C uPAR down
- LOEC (log10 uM) [3]: 1.78

Test System: LPS VCAM1 down
- LOEC (log10 uM) [1]: 1.78
- LOEC (log10 uM) (Azathioprine): 1.22 ± 0.37
- LOEC (log10 uM) (Perfluorooctanamidine): 1.78
- LOEC (log10 uM) [7]: 1.78

Test System: 3C SRB down
- LOEC (log10 uM) (Azathioprine): 1.48
- LOEC (log10 uM) [3]: 1.78
- LOEC (log10 uM) [7]: 1.78

Test System: hDFCGF TIMP2 down
- LOEC (log10 uM) [3]: 1.3
- LOEC (log10 uM) [5]: 1.78
- LOEC (log10 uM) [8]: 1.54 ± 0.34

Test System: 4H SRB down
- LOEC (log10 uM) [2]: 1.22 ± 0.37
- LOEC (log10 uM) [3]: 1.78

Test System: BF4T PAI1 down
- LOEC (log10 uM) [3]: 1.78

Test System: BE3C IP10 down
- LOEC (log10 uM) [3]: 1.3
- LOEC (log10 uM) [7]: 1.54 ± 0.34
- LOEC (log10 uM) [5]: 1.3
- LOEC (log10 uM) [8]: 1.3

Test System: KF3CT IL8 down
- LOEC (log10 uM) [6]: 1.3
- LOEC (log10 uM) [3]: 1.78
- LOEC (log10 uM) [7]: 1.78
